pIC50: −log10 of the molar value. Read-outs that look alike come from different tables or passages of the source.
Key:
METTL3/METTL14 = METTL3/METTL14 (Homo sapiens, UniProt Q86U44); assay: METTL3-14 Standard Enzyme Assay (METTL3 biochemical assay)
How it was run: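 METTL3/METTL14 at 2.5 nM, preincubated 5 min with compound in 20 mM HEPES pH 7.5, 50 mM KCl, 250 μM MgCl2, 1 mM DTT, at ambient temperature. Started with 100 nM 3′-biotinylated RNA and 100 nM ³H-SAM, quenched at 30 min with 15 μM cold SAM. Methylation read by scintillation on streptavidin flashplates.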

PRMT5-MEP50 = PRMT5-MEP50 (Homo sapiens, UniProt O14744); assay: PRMT5 Assay (PRMT5 biochemical assay)
PRMT5-MEP50, sequence (O14744 whole entry): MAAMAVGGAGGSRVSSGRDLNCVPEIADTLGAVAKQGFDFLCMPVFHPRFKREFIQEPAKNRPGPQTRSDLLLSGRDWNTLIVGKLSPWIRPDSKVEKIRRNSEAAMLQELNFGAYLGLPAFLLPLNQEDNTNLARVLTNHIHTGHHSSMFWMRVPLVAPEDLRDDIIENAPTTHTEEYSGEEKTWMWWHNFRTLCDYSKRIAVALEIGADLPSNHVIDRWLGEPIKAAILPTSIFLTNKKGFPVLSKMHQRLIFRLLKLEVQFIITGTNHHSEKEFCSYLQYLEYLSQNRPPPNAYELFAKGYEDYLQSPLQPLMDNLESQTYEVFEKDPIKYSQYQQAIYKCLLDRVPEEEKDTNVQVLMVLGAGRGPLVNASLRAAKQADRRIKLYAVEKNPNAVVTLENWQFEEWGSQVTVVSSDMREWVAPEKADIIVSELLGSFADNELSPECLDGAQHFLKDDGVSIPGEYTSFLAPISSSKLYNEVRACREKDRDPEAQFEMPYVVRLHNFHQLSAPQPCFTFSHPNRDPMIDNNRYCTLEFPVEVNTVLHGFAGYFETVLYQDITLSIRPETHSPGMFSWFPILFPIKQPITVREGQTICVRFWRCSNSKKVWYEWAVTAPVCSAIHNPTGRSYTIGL
PRMT5-MEP50, sequence (Q9BQA1 whole entry partner): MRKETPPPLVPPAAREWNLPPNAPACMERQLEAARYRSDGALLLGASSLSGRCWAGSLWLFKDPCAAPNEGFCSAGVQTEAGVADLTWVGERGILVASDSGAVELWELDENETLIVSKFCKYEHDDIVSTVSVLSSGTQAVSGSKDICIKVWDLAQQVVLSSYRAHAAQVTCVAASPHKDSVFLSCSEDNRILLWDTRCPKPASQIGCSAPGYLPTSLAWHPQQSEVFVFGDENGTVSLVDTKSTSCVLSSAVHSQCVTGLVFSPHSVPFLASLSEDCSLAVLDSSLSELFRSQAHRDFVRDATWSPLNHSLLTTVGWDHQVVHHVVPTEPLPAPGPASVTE
How it was run: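 PRMT5-MEP50 (2.5 nM final) preincubated 5 min with compound, then reacted 60 min at ambient temperature with 100 nM biotinylated N-acetyl histone H4 peptide and 250 nM 3H-SAM in 20 mM Tris-HCl pH 8.0, 1 mM DTT, 0.01% Tween. Quenched with 15 μM cold SAM; methylated peptide captured on streptavidin flashplates, scintillation counted.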

[1] = test system: m6A in cellular mRNA of MOLM-13 cells; assay: m6A-mRNA LC-MS/MS Assay (m6A cellular assay); format: cell-based; settings: Homo sapiens, MOLM-13, read-out: m^6A IC50
Protocol: Cells were harvested by centrifugation followed by mRNA extraction using DIRECT Dynabeads mRNA DIRECT kit (Life Technologies). mRNA was quantified on NanoDrop spectrophotometer (Thermo Fisher Scientific) and digested into single nucleosides using Nucleoside Digestion Mix (New England Biolabs). […] Quantification is performed in comparison with the standard curve, obtained from pure nucleoside standards (Selleck Chemicals) running with the same batch of samples. Percentage m^6A in cellular mRNA is calculated as 100*(m^6A/A).

MOLM-13 cells [2] = assay: MOLM-13 48 Hour Cell Proliferation Assay; format: cell-based; settings: Homo sapiens
Protocol: MOLM-13 (DSMZ) cells were seeded at 1000 cells per well in a volume of 44 μL in a Falcon 384-well tissue culture treated clear bottom microplate in RPMI 1640 media containing 10% fetal bovine serum using a Multidrop Combi (ThermoFisher Scientific). Cells were incubated overnight at 37° C. in a humidified tissue culture incubator. The Mosquito® HTS Liquid Handler was used to make a compound/media intermediate plate by aliquoting 1 μL of compound from the initial compound dilution plate (concentrations ranging from 10.0 mM to 38.0 nM in 100% DMSO) into a V bottom 384-well screen matrix plate containing 49 μL of media containing the appropriate serum (50-fold dilution, 2% DMSO). The Apricot liquid handling system was used to transfer 6.2 μL compounds from the intermediate plate into the Falcon 384-well tissue culture plate containing 44 μL cells (10-point, 4-fold dilution spanning concentrations 25.0 μM to […], 0.25% DMSO final), and placed in a humidified tissue culture incubator at 37° C. After 48 hours, 25 μL of Cell Titer-Glo reagent (Promega) was added to each well using a Multidrop Combi. The plate was protected from light and placed on an IKA plate shaker for at 300 rpm for 10 minutes at room temperature. The plate was read on an EnVision plate reader (Perkin Elmer) using the Ultra Sensitive Luminescence protocol. Data analysis was performed by normalizing the raw luminescence units to an average of the positive control values for staurosporine (100% cell death) and the negative control values for DMSO (0% cell death). An IC50 was calculated using a 4-parameter logistic nonlinear regression model in GraphPad Prism.

MOLM-13 cells [3] = assay: MOLM-13 96 Hour Cell Proliferation Assay; format: cell-based; settings: Homo sapiens
How it was run: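 MOLM-13 cells in RPMI 1640 with 10% FBS were plated overnight at 37 °C, then exposed to compound dilutions at 0.25% DMSO final for 96 h. Viability was read by CellTiter-Glo luminescence, normalised to staurosporine (100% death) and DMSO (0% death) controls, and IC50 was fitted by 4-parameter logistic regression.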

METTL1/WDR4 = METTL1/WDR4 (Homo sapiens, UniProt Q9UBP6); assay: METTL1 Assay (METTL1 biochemical assay); settings: METTL1 biochemical assay; read-out: METTL1 IC50
METTL1/WDR4, sequence (Q9UBP6 whole entry, species assumed): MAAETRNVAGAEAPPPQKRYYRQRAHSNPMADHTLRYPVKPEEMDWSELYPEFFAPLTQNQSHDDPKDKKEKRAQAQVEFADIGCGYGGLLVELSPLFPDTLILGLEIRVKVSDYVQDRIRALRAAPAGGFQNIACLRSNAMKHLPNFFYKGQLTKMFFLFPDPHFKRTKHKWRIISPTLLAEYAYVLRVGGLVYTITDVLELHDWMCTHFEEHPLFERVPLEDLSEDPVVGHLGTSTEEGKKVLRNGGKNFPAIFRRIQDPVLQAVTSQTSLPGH
METTL1/WDR4, sequence (P57081 whole entry partner, species assumed): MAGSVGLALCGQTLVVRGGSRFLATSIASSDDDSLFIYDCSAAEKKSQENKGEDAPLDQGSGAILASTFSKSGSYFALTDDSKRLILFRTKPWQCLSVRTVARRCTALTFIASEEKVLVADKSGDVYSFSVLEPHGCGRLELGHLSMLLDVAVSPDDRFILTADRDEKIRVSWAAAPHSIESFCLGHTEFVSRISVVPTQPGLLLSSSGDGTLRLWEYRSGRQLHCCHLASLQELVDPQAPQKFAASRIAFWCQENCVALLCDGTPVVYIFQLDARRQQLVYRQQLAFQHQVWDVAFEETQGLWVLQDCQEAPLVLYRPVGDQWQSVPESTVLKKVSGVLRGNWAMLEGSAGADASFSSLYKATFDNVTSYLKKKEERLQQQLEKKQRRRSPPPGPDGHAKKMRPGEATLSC
How it was run: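 Radiometric methyltransfer by METTL1/WDR4 (6.25 nM f.c., 5 min preincubation) at ambient temperature in HEPES pH 7.5, KCl, MgCl2, DTT; started with 25 nM 3′-biotinylated RNA and 60 nM 3H-SAM, run 20 min, quenched with 15 μM cold SAM. Product captured on streptavidin flashplates (2 h, 25° C), counted by scintillation.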

[4] = METTL3 biochemical assay, read-out: METTL3 IC50
[5] = PRMT5 biochemical assay, read-out: PRMT5 IC50

METTL3/METTL14, sequence (Q86U44 whole entry, species assumed): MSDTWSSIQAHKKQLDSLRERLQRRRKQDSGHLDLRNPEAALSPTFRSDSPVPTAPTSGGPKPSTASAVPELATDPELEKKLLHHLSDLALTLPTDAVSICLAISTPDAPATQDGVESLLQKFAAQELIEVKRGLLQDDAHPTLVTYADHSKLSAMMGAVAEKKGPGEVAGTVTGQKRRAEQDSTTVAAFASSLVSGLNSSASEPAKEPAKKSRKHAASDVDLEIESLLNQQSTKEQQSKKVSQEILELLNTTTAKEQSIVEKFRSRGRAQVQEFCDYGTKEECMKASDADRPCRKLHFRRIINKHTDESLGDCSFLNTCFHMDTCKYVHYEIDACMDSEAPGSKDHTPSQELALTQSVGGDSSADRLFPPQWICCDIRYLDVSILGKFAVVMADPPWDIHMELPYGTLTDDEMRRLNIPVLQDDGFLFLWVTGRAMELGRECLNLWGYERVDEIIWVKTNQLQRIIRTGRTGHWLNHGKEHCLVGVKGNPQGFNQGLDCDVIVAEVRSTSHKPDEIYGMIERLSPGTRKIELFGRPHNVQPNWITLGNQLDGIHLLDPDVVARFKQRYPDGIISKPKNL
METTL3/METTL14, sequence (Q9HCE5 whole entry partner, species assumed): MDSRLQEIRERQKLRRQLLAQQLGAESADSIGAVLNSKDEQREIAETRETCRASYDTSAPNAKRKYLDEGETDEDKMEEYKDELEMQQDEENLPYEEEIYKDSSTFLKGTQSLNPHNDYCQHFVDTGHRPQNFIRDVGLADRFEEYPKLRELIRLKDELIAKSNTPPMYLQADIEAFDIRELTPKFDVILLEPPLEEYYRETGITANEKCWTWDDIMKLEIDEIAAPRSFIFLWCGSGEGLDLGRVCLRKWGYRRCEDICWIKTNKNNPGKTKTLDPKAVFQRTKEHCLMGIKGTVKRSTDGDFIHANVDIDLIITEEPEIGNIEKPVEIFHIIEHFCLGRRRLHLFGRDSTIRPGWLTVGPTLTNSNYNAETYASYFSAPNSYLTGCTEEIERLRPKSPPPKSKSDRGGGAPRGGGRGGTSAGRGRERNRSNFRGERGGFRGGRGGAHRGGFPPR

Row | Structure (SMILES) | pIC50 (METTL3/METTL14; read-out: METTL3 IC50, METTL3 biochemical assay) | pIC50 (PRMT5-MEP50; read-out: PRMT5 IC50, PRMT5 biochemical assay) | pIC50 [1] | pIC50 (MOLM-13 cells [2]) | pIC50 (MOLM-13 cells [3]) | pIC50 (METTL3/METTL14; [4]) | pIC50 (PRMT5-MEP50; [5]) | pIC50 (MOLM-13 cells [3]; MOLM-13, 96 h) | pIC50 (METTL3/METTL14) | pIC50 (PRMT5-MEP50) | pIC50 (METTL1/WDR4)
1 | CNc1ccc2ccc(OC[C@H]3O[C@@H](n4cc(-c5ncco5)c5c(N)ncnc54)[C@@H](F)[C@@H]3O)cc2n1 [I-150] | > 8.00 | 7.00 to 8.00 | > 6.00 | > 6.00 | > 6.00 |  |  |  |  |  | 
2 | CNc1ccc2ccc(OC[C@H]3O[C@@H](n4cc([C@H]5CCCO5)c5c(N)ncnc54)[C@@H](F)[C@@H]3O)cc2n1 [I-151] |  |  | 5.00 to 6.00 | 5.00 to 6.00 |  | > 8.00 | 6.00 to 7.00 | > 6.00 |  |  | 
3 | CNc1ccc2ccc(OC[C@H]3O[C@@H](n4cc([C@@H]5CCCO5)c5c(N)ncnc54)[C@@H](F)[C@@H]3O)cc2n1 [I-152] |  |  | > 6.00 | 5.00 to 6.00 |  | > 8.00 | < 6.00 | > 6.00 |  |  | 
4 | Nc1ncnc2c1c([C@@H]1CCCO1)cn2[C@@H]1O[C@H](COc2ccc3ccc(N4CCC4)nc3c2)[C@@H](O)[C@@H]1F [I-158] |  |  | > 6.00 | 5.00 to 6.00 |  | > 8.00 |  | > 6.00 |  |  | 
5 | Cn1ccc(-c2cn([C@H]3C[C@H](O)[C@@H](COc4ccc5ccc(N6CCC6)nc5c4)O3)c3ncnc(N)c23)n1 [I-164] |  |  | > 6.00 | 5.00 to 6.00 | > 6.00 |  |  |  | > 8.00 | < 6.00 | 
6 | Nc1ncnc2c1c(-n1cccn1)cn2[C@H]1C[C@H](O)[C@@H](COc2ccc3ccc(N4CCC4)nc3c2)O1 [I-170] |  |  | > 6.00 | 5.00 to 6.00 | 5.00 to 6.00 |  |  |  | > 8.00 | < 6.00 | 
7 | Cn1ccc(-c2cn([C@@H]3O[C@H](COc4ccc5ccc(N6CC(O)C6)nc5c4)[C@@H](O)[C@@H]3F)c3ncnc(N)c23)n1 [I-171] |  |  | 5.00 to 6.00 | 5.00 to 6.00 | 5.00 to 6.00 |  |  |  | > 8.00 | < 6.00 | 
8 | Cn1ccc(-c2cn([C@H]3C[C@H](O)[C@@H](COc4ccc5ccc(NC6CC6)nc5c4)O3)c3ncnc(N)c23)n1 [I-179] |  |  | 5.00 to 6.00 | 5.00 to 6.00 | > 6.00 |  |  |  | > 8.00 | 6.00 to 7.00 | 
9 | Cn1ccc(-c2cn([C@@H]3O[C@H](COc4ccc5ccc(NC6CCC6)nc5c4)[C@@H](O)[C@@H]3F)c3ncnc(N)c23)n1 [I-183] |  |  | > 6.00 | > 6.00 | > 6.00 |  |  |  | > 8.00 | < 6.00 | 
10 | Cc1coc(-c2cn([C@@H]3O[C@H](COc4ccc5ccc(N6CCC6)nc5c4)[C@@H](O)[C@@H]3F)c3ncnc(N)c23)n1 [I-220] |  |  | > 6.00 | 5.00 to 6.00 | > 6.00 |  |  |  | > 8.00 | < 6.00 | 
11 | Nc1ncnc2c1c(-n1cccn1)cn2[C@@H]1O[C@H](COc2ccc3ccc(N4CCC4)nc3c2)[C@@H](O)[C@@H]1F [I-222] |  |  | > 6.00 | > 6.00 | > 6.00 |  |  |  | > 8.00 | < 6.00 | 
12 | CNc1ccc2ccc(OC[C@H]3O[C@@H](n4cc(-c5cc[nH]n5)c5c(N)ncnc54)[C@@H](F)[C@@H]3O)cc2n1 [I-228] |  |  | 5.00 to 6.00 | > 6.00 |  |  |  | > 6.00 | > 8.00 | 6.00 to 7.00 | < 6.00
13 | CCc1cc(NC)c2ccc(OC[C@H]3O[C@@H](n4cc(-c5ccn(C)n5)c5c(N)ncnc54)[C@@H](F)[C@@H]3O)cc2n1 [I-232] |  |  | < 5.00 | < 5.00 |  |  |  |  | > 8.00 | 6.00 to 7.00 | < 6.00

From patent US20230027361A1, “METTL3 MODULATORS” (priority 2019, published 2023)
